In ChEMBL document CHEMBL1687944, “Purification and inhibition studies with anions and sulfonamides of an α-carbonic anhydrase from the Antarctic seal Leptonychotes weddellii” (Bioorg Med Chem, 2011):
pKi: −log10 of the molar value.

Molecular target: Carbonic anhydrase 1 (Homo sapiens, UniProt P00915)
Sequence (P00915 whole entry): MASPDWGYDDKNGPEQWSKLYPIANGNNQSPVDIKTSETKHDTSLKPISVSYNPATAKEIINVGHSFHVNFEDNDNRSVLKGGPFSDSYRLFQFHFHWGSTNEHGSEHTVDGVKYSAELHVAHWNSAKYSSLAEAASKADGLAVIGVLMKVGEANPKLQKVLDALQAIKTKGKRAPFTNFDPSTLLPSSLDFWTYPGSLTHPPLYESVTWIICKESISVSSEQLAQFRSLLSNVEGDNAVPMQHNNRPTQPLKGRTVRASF

Structure (SMILES) | pKi
[O-][Cl+3]([O-])([O-])O [SODIUM PERCHLORATE] | < 0.70
O=[N+]([O-])[O-].[Na+] [SODIUM NITRATE] | 2.15
O=S([O-])O.[Na+] [SODIUM BISULFITE] | 1.74
